What was measured:
[1] = system: latent HIV provirus in OM10.1 cells; assay: Induction of latent HIV provirus by TNF-α in OM10.1 cells (CD4 retention, p24); format: cell-based, HIV-1
Protocol: In order to determine p24 expression in HIV-infected cells, the cells were first washed twice with Assay Buffer. About 10^6 cells were suspended in 100 μL Assay Buffer, mixed with 2 mL of Ortho PermeaFix Solution (available from Ortho Diagnostics), and incubated for 40 min. at room temperature. After centrifugation at 1200 rpm for 4 min. at 4EC, the cells were resuspended in 2 mL Wash Buffer (500 mL PBS, 25 mL fetal bovine serum, 1.5% bovine serum albumin and 0.0055% EDTA) for 10 min. at room temperature. After centrifugation, the cells were resuspended in 50 ΦL Wash Buffer and mixed with 1:500 dilution of an IgG2a antibody for 20 min. at 4EC, followed by incubation with 5-10 ΦL of anti-p24 antibody (KC57-FITC, available from Coulter) for 30 min. at 4EC. The cells were then washed twice with Wash Buffer and analyzed by flow cytometry.
One strategy selected for GSEs which suppressed productive infection of cells by HIV. The second strategy selected for GSEs which suppressed induction of the latent provirus in OM10.1 cells. When OM10.1 cells were treated with TNF-α and stained with an antibody specific for the cell surface molecule CD4, a rapid loss of CD4 expression was observed (FIG. 1). In contrast, the vast majority of the uninduced OM10.1 cells retained CD4 expression. It is believed that activation of the latent virus in OM10.1 cells by TNF-α leads to the production of viral protein gp120, which binds to cytoplasmic CD4, thereby preventing its translocation to the cell surface. A diminution of CD4^+ OM10.1 cells also correlates with an increased production of viral protein p24 in the cells following TNF-α induction.
OM10.1 cells were cultured in RPMI 1640 glucose-free media prior to and during incubation with NADH dehydrogenase inhibitors and TNF-á induction. The inhibitors were added to the cells followed by TNF-á induction 1-2 hours later. The expression of CD4 by the cells was assessed by anti-CD4 antibody staining and flow cytometry after 24 hour incubation at 37° C.

HIV-1SF33 = assay: Productive infection of activated human PBLs with HIV-1SF33, flow cytometry of CD3+ T cells; format: cell-based; settings: for % CD4^+ in population / % p24+ cells among CD4+ T cells: HIV +, day 6; for % CD4^+ in population: CD3+ T cells of human PBLs; for % p24+ cells among CD4+ T cells: human PBLs
Protocol: (§1) Human peripheral blood leukocytes (PBLs) were isolated using Ficoll-Hypaque density gradient separation. Cells were washed twice and resuspended in RPMI+10% FBS+2% human AB serum+penicillin/streptomycin/glutamine+100 Units/mL of IL-2 at a concentration of 0.5×10^6 cells/mL. PBLs were then activated with phytohemagglutinin at 0.5 μg/mL and placed in a humidified incubator at 37° C./5% CO2. After two days of activation, 10^6 cells were infected with HIV-1SF33 at TCID50 of 1000, in the presence of various concentrations of mofarotene: 0 μM, 1 μM, 0.5 μM, 0.1 μM, and 0.05 μM. A separate set of uninfected samples under identical concentrations of mofarotene were also maintained as controls. The samples were analyzed by flow cytometry at day 4 and day 6 post infection. The cells were gated for CD3 expression (for T cells). Then the expression of CD4 and viral p24 and CD4 was examined by bivariate dot plot.
In order to test the ability of a NADH dehydrogenase inhibitor to prevent productive infection of T cells by HIV, human PBLs were isolated and infected with HIVSF33 in the presence of various concentrations of mofarotene.

[2] = system: human peripheral blood leukocytes (PBLs); assay: Uninfected human PBL controls with mofarotene alone (CD4, p24, CD3); format: cell-based; settings: for % CD4^+ in population / % p24^− in CD4^− T population: HIV −; for % CD4^+ in population: CD3+ T cells of human PBLs; for % p24^− in CD4^− T population: human PBLs
Protocol: as §1

OM10.1 cells = format: cell-based; settings: human, 24 h, 100 nM

C/C(=C\c1ccc(OCCN2CCOCC2)cc1)c1ccc2c(c1)C(C)(C)CCC2(C)C [mofarotene, Mofarotene]
cells that retained CD4 expression ([1]; 100 nM of mofarotene, TNF-α-induced OM10.1 cells): 80%
inhibition of induction of latent HIV provirus (retention of CD4 expression) ([1]; TNF-α-induced OM10.1 cells, 24 hour incubation, FIG. 5 / FIG. 6): inhibited HIV-1 induction at even lower concentrations
intracellular p24 levels ([1]; treated cells compared with untreated controls): suppressed intracellular p24 levels
% CD4^+ in population (HIV-1SF33; mofarotene 0.05 μM): 18%
% p24+ cells among CD4+ T cells (HIV-1SF33; mofarotene 0.05 μM): 20.5%
% CD4^+ in population (HIV-1SF33; mofarotene 0.1 μM): 28%
% p24+ cells among CD4+ T cells (HIV-1SF33; mofarotene 0.1 μM): 11.4%
% CD4^+ in population (HIV-1SF33; mofarotene 0.5 μM): 24%
% p24+ cells among CD4+ T cells (HIV-1SF33; mofarotene 0.5 μM): 12.5%
% CD4^+ in population (HIV-1SF33; mofarotene 1.0 μM): 25%
% p24+ cells among CD4+ T cells (HIV-1SF33; mofarotene 1.0 μM): 10%
% p24+ cells among CD4+ T cells (HIV-1SF33; mofarotene 1.0 μM, listed as Mofarotene): 10%
difference between HIV-infected PBLs with or without mofarotene (HIV-1SF33; day 4 post-infection): little detectable difference
depletion of CD4^+ T cells by HIV infection (HIV-1SF33; day 6, 1 μM mofarotene): inhibited the depletion of CD4^+ T cells by HIV infection
level of protection (percentage of p24+ CD4+ T cells and of CD4+ cells in CD3+ T cells) versus concentration (HIV-1SF33; day 6, 1 to 0.05 μM): diminished with decreased concentrations of mofarotene
% CD4^+ in population ([2]; mofarotene 0.05 μM, day 6): 33%
% p24^− in CD4^− T population ([2]; mofarotene 0.05 μM, day 6): 0%
% CD4^+ in population ([2]; mofarotene 0.1 μM, day 6): 34%
% p24^− in CD4^− T population ([2]; mofarotene 0.1 μM, day 6): 0%
% CD4^+ in population ([2]; mofarotene 0.5 μM, day 6): 34%
% p24^− in CD4^− T population ([2]; mofarotene 0.5 μM, day 6): 0%
% CD4^+ in population ([2]; mofarotene 1.0 μM, day 6): 36%
% p24^− in CD4^− T population ([2]; mofarotene 1.0 μM, day 6): 0%
expression level of CD3 on the cell surface ([2]; day 4): nor did it alter the expression level of CD3 on the cell surface
percentage of CD4^+ T cells, mofarotene alone ([2]; day 4): did not significantly alter the percentage of CD4^+ T cells
expression level of CD3 on the cell surface ([2]; day 6): did not alter the expression level of CD3 on the cell surface
increase of the percentage of CD4^+ T cells in uninfected samples by mofarotene alone ([2]; day 6, uninfected samples): up to 4%
cells that remained viable (OM10.1 cells): greater than 80%

Reference: patent publication US6613506B1, “Compositions and methods for inhibiting human immunodeficiency virus infection by down-regulating human cellular genes” (Subsidiary No. 3, Inc., priority 2000, dated 2003)
